Results from PubChem BioAssay (NCI).
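Step 1: Grow cells in 96-well plates. Step 2: Expose to compound for 48 hours at 5 concentrations. Step 3: Interpolate endpoints linearly; if unreached, use highest concentration. At the TGI there is no net growth.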

Columns and labels:
Assay in all cases: NCI tumour cell line growth inhibition, 48 h
786-0 renal = system: 786-0 renal
A498 renal = system: A498 renal
A549 NSCLC = system: A549 NSCLC
ACHN renal = system: ACHN renal
BT-549 breast = system: BT-549 breast
CAKI-1 renal = system: CAKI-1 renal
CCRF-CEM leukemia = system: CCRF-CEM leukemia
COLO 205 colon = system: COLO 205 colon
DU-145 prostate = system: DU-145 prostate
EKVX NSCLC = system: EKVX NSCLC
HCC-2998 colon = system: HCC-2998 colon
HCT-116 colon = system: HCT-116 colon
HCT-15 colon = system: HCT-15 colon
HL-60(TB) leukemia = system: HL-60(TB) leukemia
HOP-62 NSCLC = system: HOP-62 NSCLC
HS 578T breast = system: HS 578T breast
HT29 colon = system: HT29 colon
IGROV1 ovarian = system: IGROV1 ovarian
K-562 leukemia = system: K-562 leukemia
KM12 colon = system: KM12 colon
LOX IMVI melanoma = system: LOX IMVI melanoma
M14 melanoma = system: M14 melanoma
MALME-3M melanoma = system: MALME-3M melanoma
MCF7 breast = system: MCF7 breast
MDA-MB-435 = system: MDA-MB-435
MDA-N = system: MDA-N
MOLT-4 leukemia = system: MOLT-4 leukemia
NCI-H23 lung = system: NCI-H23 lung
NCI-H460 lung = system: NCI-H460 lung
NCI-H522 lung = system: NCI-H522 lung
NCI/ADR-RES ovarian = system: NCI/ADR-RES ovarian
OVCAR-3 ovarian = system: OVCAR-3 ovarian
OVCAR-4 ovarian = system: OVCAR-4 ovarian
OVCAR-5 ovarian = system: OVCAR-5 ovarian
OVCAR-8 ovarian = system: OVCAR-8 ovarian
PC-3 prostate = system: PC-3 prostate
RPMI-8226 leukemia = system: RPMI-8226 leukemia
SF-268 CNS = system: SF-268 CNS
SF-295 CNS = system: SF-295 CNS
SF-539 CNS = system: SF-539 CNS
SK-MEL-2 melanoma = system: SK-MEL-2 melanoma
SK-MEL-28 melanoma = system: SK-MEL-28 melanoma
SK-MEL-5 melanoma = system: SK-MEL-5 melanoma
SK-OV-3 ovarian = system: SK-OV-3 ovarian
SN12C renal = system: SN12C renal
SNB-19 CNS = system: SNB-19 CNS
SR leukemia = system: SR leukemia
SW-620 colon = system: SW-620 colon
T-47D breast = system: T-47D breast
U251 CNS = system: U251 CNS
UACC-257 melanoma = system: UACC-257 melanoma
UACC-62 melanoma = system: UACC-62 melanoma
UO-31 renal = system: UO-31 renal
MDA-MB-231 breast = system: MDA-MB-231 breast
NCI-H226 lung = system: NCI-H226 lung
RXF 393 renal = system: RXF 393 renal
SNB-75 CNS = system: SNB-75 CNS
TK-10 renal = system: TK-10 renal
HOP-92 NSCLC = system: HOP-92 NSCLC

Measured: TGI

COc1ccc(NC(=S)c2ccc(CN3CCCCC3)s2)cc1
52.7 µM: HOP-62 NSCLC
34.1 µM: OVCAR-5 ovarian
74.7 µM: RPMI-8226 leukemia
62.2 µM: PC-3 prostate
61.9 µM: MOLT-4 leukemia
93.8 µM: NCI/ADR-RES ovarian
18.3 µM: HT29 colon
37.4 µM: NCI-H460 lung
43.8 µM: HS 578T breast
32.5 µM: NCI-H522 lung
42.4 µM: SW-620 colon
26.9 µM: HCT-15 colon
51.8 µM: SR leukemia
43.9 µM: SNB-19 CNS
32.8 µM: UACC-62 melanoma
45.4 µM: OVCAR-8 ovarian
31.5 µM: A498 renal
41.3 µM: EKVX NSCLC
35.7 µM: KM12 colon | UO-31 renal
42.1 µM: K-562 leukemia
47.4 µM: A549 NSCLC
36.7 µM: 786-0 renal | MDA-N
34.7 µM: MDA-MB-435
38.1 µM: SF-295 CNS
60.7 µM: T-47D breast
77.3 µM: CAKI-1 renal
33.8 µM: SK-MEL-28 melanoma
32.3 µM: HCC-2998 colon
> 100 µM: ACHN renal | DU-145 prostate | OVCAR-3 ovarian | OVCAR-4 ovarian | SF-268 CNS | SF-539 CNS | SN12C renal
30.8 µM: COLO 205 colon
37.6 µM: MALME-3M melanoma
49.2 µM: IGROV1 ovarian
31.8 µM: SK-OV-3 ovarian
34.5 µM: CCRF-CEM leukemia
36.9 µM: SK-MEL-2 melanoma
35.6 µM: HCT-116 colon | UACC-257 melanoma
31.9 µM: HL-60(TB) leukemia
28 µM: SK-MEL-5 melanoma
35.4 µM: M14 melanoma
34.8 µM: U251 CNS
44 µM: BT-549 breast
33.3 µM: LOX IMVI melanoma | MCF7 breast
29.5 µM: NCI-H23 lung

C[C@]12c3c4cc(NC(=O)C(=O)NCc5ccc(-c6ccccn6)nc5)cc3Oc3cc(NC(=O)C(=O)NCc5ccc(-c6ccccn6)nc5)cc(c31)OC1C=C(NC(=O)C(=O)NCc3ccc(-c5ccccn5)nc3)C=C(O4)C12 (some centres undefined)
79.1 µM: UACC-62 melanoma
93.4 µM: CAKI-1 renal
27.5 µM: MDA-MB-231 breast
75.5 µM: 786-0 renal
70.4 µM: LOX IMVI melanoma
62.4 µM: EKVX NSCLC
76.3 µM: SNB-75 CNS
98.6 µM: DU-145 prostate
97.9 µM: T-47D breast
51.9 µM: SR leukemia
59.2 µM: ACHN renal
68.6 µM: UO-31 renal
29.8 µM: OVCAR-4 ovarian
40.6 µM: IGROV1 ovarian
not listed: A498 renal | HCC-2998 colon | MALME-3M melanoma | NCI-H23 lung | HOP-92 NSCLC
> 100 µM: all other assays above

O=C1OC(c2ccccc2)=N/C1=C\c1ccc([N+](=O)[O-])cc1
93.9 µM: T-47D breast
18.9 µM: NCI-H226 lung
40.5 µM: ACHN renal
86 µM: SK-MEL-2 melanoma
67 µM: BT-549 breast
96 µM: UACC-62 melanoma
55.1 µM: NCI/ADR-RES ovarian
79.6 µM: SR leukemia
76.2 µM: HOP-92 NSCLC
58.1 µM: MOLT-4 leukemia
68.3 µM: CCRF-CEM leukemia
not listed: MALME-3M melanoma
> 100 µM: all other assays above

Cc1ccc(S[C@@H](C)[C@@](O)(CF)CN(Cc2ccccc2)C(=O)C(F)(F)F)cc1
64.9 µM: EKVX NSCLC
29.7 µM: A498 renal
44.2 µM: MALME-3M melanoma
34.8 µM: OVCAR-5 ovarian | UACC-62 melanoma
62.7 µM: MDA-N
34.2 µM: OVCAR-4 ovarian
40.4 µM: MDA-MB-435
31.7 µM: M14 melanoma
32.1 µM: A549 NSCLC
46.2 µM: HL-60(TB) leukemia
53.2 µM: DU-145 prostate
> 100 µM: CCRF-CEM leukemia | HOP-92 NSCLC | IGROV1 ovarian | LOX IMVI melanoma | NCI-H522 lung | OVCAR-8 ovarian | SF-268 CNS | SK-MEL-28 melanoma | TK-10 renal
58.2 µM: MCF7 breast
36.5 µM: SK-MEL-2 melanoma
60.3 µM: ACHN renal
54.3 µM: MDA-MB-231 breast
56.8 µM: UACC-257 melanoma
36.9 µM: NCI-H460 lung
41.5 µM: HCC-2998 colon
31 µM: UO-31 renal
46.5 µM: BT-549 breast
75.2 µM: SW-620 colon
94.3 µM: PC-3 prostate
56.7 µM: NCI-H23 lung
35.4 µM: 786-0 renal
69.5 µM: NCI/ADR-RES ovarian
61.7 µM: HS 578T breast
55.5 µM: HCT-15 colon
68.5 µM: T-47D breast
33.5 µM: SN12C renal
35.3 µM: U251 CNS
27.6 µM: HT29 colon
55 µM: SNB-19 CNS
99.7 µM: CAKI-1 renal
27 µM: OVCAR-3 ovarian
27.3 µM: HCT-116 colon

C[C@]12[C@@H]3CC[C@H]1[C@@H](O)C(=O)N2CC3
not listed: OVCAR-3 ovarian | SF-539 CNS | NCI-H226 lung
> 100 µM: all other assays above

COc1ccc2oc3c(C)cc4c(OC)nnc(OC)c4c3c2c1
6.55 µM: HCT-116 colon
14.8 µM: U251 CNS
63.9 µM: HCT-15 colon
91.9 µM: TK-10 renal
not listed: IGROV1 ovarian | SR leukemia
> 100 µM: all other assays above

COc1cc(S(=O)(=O)Nc2ccc(-c3csc(N4C(=O)CSC4c4cccc(Oc5ccccc5)c4)n3)cc2)ccc1Cl (centres undefined)
48.9 µM: HL-60(TB) leukemia
87.7 µM: SK-MEL-28 melanoma
75.8 µM: MDA-N
52.8 µM: RXF 393 renal
33.9 µM: T-47D breast
51.7 µM: MCF7 breast
not listed: A549 NSCLC | HCC-2998 colon | NCI-H460 lung | SK-MEL-2 melanoma | U251 CNS | UACC-257 melanoma | MDA-MB-231 breast | TK-10 renal
> 100 µM: all other assays above
